In ChEMBL document CHEMBL3044945, “Synthesis of 1,3,5-trisubstituted pyrazoline nucleus containing compounds and screening for antimicrobial activity” (2012):
Values after ≈ are worked out from the molar mass of the structure shown.

How the values were obtained:
Type in all cases: functional
[1] = test system: Staphylococcus aureus; assay: Antibacterial activity against Staphylococcus aureus MTCC 1430 at 750 ug/ml after 48 hr by cup-plate method; details: MTCC 1430, 48 h, read-out: DIZ
[2] = test system: Pseudomonas aeruginosa; assay: Antibacterial activity against Pseudomonas aeruginosa MTCC 424 after 24 to 48 hr by tube dilution method
[3] = test system: Bacillus subtilis; assay: Antibacterial activity against Bacillus subtilis MTCC 441 at 500 ug/ml after 48 hr by cup-plate method; details: MTCC 441, 48 h, read-out: DIZ
[4] = test system: Escherichia coli; assay: Antibacterial activity against Escherichia coli MTCC 1573 at 1000 ug/ml after 48 hr by cup-plate method; details: MTCC 1573, 48 h, read-out: DIZ
[5] = test system: Micrococcus luteus; assay: Antibacterial activity against Micrococcus luteus MTCC 1538 at 1250 ug/ml after 48 hr by cup-plate method; details: MTCC 1538, 48 h, read-out: DIZ
[6] = test system: Escherichia coli; assay: Antibacterial activity against Escherichia coli MTCC 1573 at 750 ug/ml after 48 hr by cup-plate method; details: MTCC 1573, 48 h, read-out: DIZ
[7] = test system: Staphylococcus aureus; assay: Antibacterial activity against Staphylococcus aureus MTCC 1430 at 500 ug/ml after 48 hr by cup-plate method; details: MTCC 1430, 48 h, read-out: DIZ
[8] = test system: Pseudomonas aeruginosa; assay: Antibacterial activity against Pseudomonas aeruginosa MTCC 424 at 100 ug/ml after 48 hr by cup-plate method; details: MTCC 424, 48 h, read-out: DIZ
[9] = test system: Staphylococcus aureus; assay: Antibacterial activity against Staphylococcus aureus MTCC 1430 after 24 to 48 hr by tube dilution method
[10] = test system: Pseudomonas fluorescens; assay: Antibacterial activity against Pseudomonas fluorescens MTCC 2421 at 500 ug/ml after 48 hr by cup-plate method; details: MTCC 2421, 48 h, read-out: DIZ
[11] = test system: Micrococcus luteus; assay: Antibacterial activity against Micrococcus luteus MTCC 1538 at 750 ug/ml after 48 hr by cup-plate method; details: MTCC 1538, 48 h, read-out: DIZ
[12] = test system: Pseudomonas fluorescens; assay: Antibacterial activity against Pseudomonas fluorescens MTCC 2421 at 100 ug/ml after 48 hr by cup-plate method; details: MTCC 2421, 48 h, read-out: DIZ
[13] = test system: Bacillus pumilus; assay: Antibacterial activity against Bacillus pumilus MTCC 1456 at 1250 ug/ml after 48 hr by cup-plate method; details: MTCC 1456, 48 h, read-out: DIZ
[14] = test system: Bacillus pumilus; assay: Antibacterial activity against Bacillus pumilus MTCC 1456 at 250 ug/ml after 48 hr by cup-plate method; details: MTCC 1456, 48 h, read-out: DIZ
[15] = test system: Aspergillus niger; assay: Antifungal activity against Aspergillus niger MTCC 2546 at 1250 ug/ml after 48 hr by cup-plate method; details: MTCC 2546, 48 h, read-out: DIZ
[16] = test system: Pseudomonas aeruginosa; assay: Antibacterial activity against Pseudomonas aeruginosa MTCC 424 at 750 ug/ml after 48 hr by cup-plate method; details: MTCC 424, 48 h, read-out: DIZ
[17] = test system: Bacillus subtilis; assay: Antibacterial activity against Bacillus subtilis MTCC 441 at 100 ug/ml after 48 hr by cup-plate method; details: MTCC 441, 48 h, read-out: DIZ
[18] = test system: Escherichia coli; assay: Antibacterial activity against Escherichia coli MTCC 1573 at 100 ug/ml after 48 hr by cup-plate method; details: MTCC 1573, 48 h, read-out: DIZ
[19] = test system: Pseudomonas aeruginosa; assay: Antibacterial activity against Pseudomonas aeruginosa MTCC 424 at 500 ug/ml after 48 hr by cup-plate method; details: MTCC 424, 48 h, read-out: DIZ
[20] = test system: Pseudomonas fluorescens; assay: Antibacterial activity against Pseudomonas fluorescens MTCC 2421 at 750 ug/ml after 48 hr by cup-plate method; details: MTCC 2421, 48 h, read-out: DIZ
[21] = test system: Aspergillus niger; assay: Antifungal activity against Aspergillus niger MTCC 2546 at 1000 ug/ml after 48 hr by cup-plate method; details: MTCC 2546, 48 h, read-out: DIZ
[22] = test system: Escherichia coli; assay: Antibacterial activity against Escherichia coli MTCC 1573 at 1250 ug/ml after 48 hr by cup-plate method; details: MTCC 1573, 48 h, read-out: DIZ
[23] = test system: Bacillus pumilus; assay: Antibacterial activity against Bacillus pumilus MTCC 1456 at 100 ug/ml after 48 hr by cup-plate method; details: MTCC 1456, 48 h, read-out: DIZ
[24] = test system: Micrococcus luteus; assay: Antibacterial activity against Micrococcus luteus MTCC 1538 at 1000 ug/ml after 48 hr by cup-plate method; details: MTCC 1538, 48 h, read-out: DIZ
[25] = test system: Pseudomonas fluorescens; assay: Antibacterial activity against Pseudomonas fluorescens MTCC 2421 at 1250 ug/ml after 48 hr by cup-plate method; details: MTCC 2421, 48 h, read-out: DIZ
[26] = test system: Penicillium chrysogenum; assay: Antifungal activity against Penicillium chrysogenum MTCC 161 at 250 ug/ml after 48 hr by cup-plate method; details: MTCC 161, 48 h, read-out: DIZ
[27] = test system: Penicillium chrysogenum; assay: Antifungal activity against Penicillium chrysogenum MTCC 161 at 100 ug/ml after 48 hr by cup-plate method; details: MTCC 161, 48 h, read-out: DIZ
[28] = test system: Aspergillus niger; assay: Antifungal activity against Aspergillus niger MTCC 2546 at 500 ug/ml after 48 hr by cup-plate method; details: MTCC 2546, 48 h, read-out: DIZ
[29] = test system: Pseudomonas aeruginosa; assay: Antibacterial activity against Pseudomonas aeruginosa MTCC 424 at 1250 ug/ml after 48 hr by cup-plate method; details: MTCC 424, 48 h, read-out: DIZ
[30] = test system: Bacillus subtilis; assay: Antibacterial activity against Bacillus subtilis MTCC 441 at 1250 ug/ml after 48 hr by cup-plate method; details: MTCC 441, 48 h, read-out: DIZ
[31] = test system: Bacillus subtilis; assay: Antibacterial activity against Bacillus subtilis MTCC 441 at 1000 ug/ml after 48 hr by cup-plate method; details: MTCC 441, 48 h, read-out: DIZ
[32] = test system: Penicillium chrysogenum; assay: Antifungal activity against Penicillium chrysogenum MTCC 161 at 500 ug/ml after 48 hr by cup-plate method; details: MTCC 161, 48 h, read-out: DIZ
[33] = test system: Bacillus pumilus; assay: Antibacterial activity against Bacillus pumilus MTCC 1456 after 24 to 48 hr by tube dilution method
[34] = test system: Micrococcus luteus; assay: Antibacterial activity against Micrococcus luteus MTCC 1538 at 500 ug/ml after 48 hr by cup-plate method; details: MTCC 1538, 48 h, read-out: DIZ
[35] = test system: Pseudomonas fluorescens; assay: Antibacterial activity against Pseudomonas fluorescens MTCC 2421 at 1000 ug/ml after 48 hr by cup-plate method; details: MTCC 2421, 48 h, read-out: DIZ
[36] = test system: Pseudomonas aeruginosa; assay: Antibacterial activity against Pseudomonas aeruginosa MTCC 424 at 1000 ug/ml after 48 hr by cup-plate method; details: MTCC 424, 48 h, read-out: DIZ
[37] = test system: Bacillus pumilus; assay: Antibacterial activity against Bacillus pumilus MTCC 1456 at 500 ug/ml after 48 hr by cup-plate method; details: MTCC 1456, 48 h, read-out: DIZ
[38] = test system: Escherichia coli; assay: Antibacterial activity against Escherichia coli MTCC 1573 after 24 to 48 hr by tube dilution method
[39] = test system: Penicillium chrysogenum; assay: Antifungal activity against Penicillium chrysogenum MTCC 161 at 750 ug/ml after 48 hr by cup-plate method; details: MTCC 161, 48 h, read-out: DIZ
[40] = test system: Staphylococcus aureus; assay: Antibacterial activity against Staphylococcus aureus MTCC 1430 at 1000 ug/ml after 48 hr by cup-plate method; details: MTCC 1430, 48 h, read-out: DIZ
[41] = test system: Micrococcus luteus; assay: Antibacterial activity against Micrococcus luteus MTCC 1538 at 250 ug/ml after 48 hr by cup-plate method; details: MTCC 1538, 48 h, read-out: DIZ
[42] = test system: Penicillium chrysogenum; assay: Antifungal activity against Penicillium chrysogenum MTCC 161 at 1000 ug/ml after 48 hr by cup-plate method; details: MTCC 161, 48 h, read-out: DIZ
[43] = test system: Staphylococcus aureus; assay: Antibacterial activity against Staphylococcus aureus MTCC 1430 at 250 ug/ml after 48 hr by cup-plate method; details: MTCC 1430, 48 h, read-out: DIZ
[44] = test system: Bacillus subtilis; assay: Antibacterial activity against Bacillus subtilis MTCC 441 at 750 ug/ml after 48 hr by cup-plate method; details: MTCC 441, 48 h, read-out: DIZ
[45] = test system: Penicillium chrysogenum; assay: Antifungal activity against Penicillium chrysogenum MTCC 161 at 1250 ug/ml after 48 hr by cup-plate method; details: MTCC 161, 48 h, read-out: DIZ

Structure (SMILES): NC(=S)N1N=C(c2cccc3ccccc23)CC1c1ccc([N+](=O)[O-])cc1 (stereo not given)
- zone of inhibition at 750 µg/mL [1]: 11 mm
- MIC [2]: 50 µg/mL (≈ 133 µM)
- zone of inhibition at 500 µg/mL [3]: 12 mm
- zone of inhibition at 1000 µg/mL [4]: 16 mm
- zone of inhibition at 1250 µg/mL [5]: 19 mm
- zone of inhibition at 750 µg/mL [6]: 14 mm
- zone of inhibition at 500 µg/mL [7]: 10 mm
- zone of inhibition at 100 µg/mL [8]: 10 mm
- MIC [9]: 150 µg/mL (≈ 398 µM)
- zone of inhibition at 500 µg/mL [10]: 18 mm
- zone of inhibition at 750 µg/mL [11]: 14 mm
- zone of inhibition at 100 µg/mL [12]: 8 mm
- zone of inhibition at 1250 µg/mL [13]: 21 mm
- zone of inhibition at 250 µg/mL [14]: 11 mm
- zone of inhibition at 1250 µg/mL [15]: 26 mm
- zone of inhibition at 750 µg/mL [16]: 16 mm
- zone of inhibition at 100 µg/mL [17]: 9 mm
- zone of inhibition at 100 µg/mL [18]: 8 mm
- zone of inhibition at 500 µg/mL [19]: 12 mm
- zone of inhibition at 750 µg/mL [20]: 22 mm
- zone of inhibition at 1000 µg/mL [21]: 24 mm
- zone of inhibition at 1250 µg/mL [22]: 18 mm
- zone of inhibition at 100 µg/mL [23]: 10 mm
- zone of inhibition at 1000 µg/mL [24]: 16 mm
- zone of inhibition at 1250 µg/mL [25]: 24 mm
- zone of inhibition at 250 µg/mL [26]: 11 mm
- zone of inhibition at 100 µg/mL [27]: 10 mm
- zone of inhibition at 500 µg/mL [28]: 17 mm
- zone of inhibition at 1250 µg/mL [29]: 22 mm
- zone of inhibition at 1250 µg/mL [30]: 22 mm
- zone of inhibition at 1000 µg/mL [31]: 19 mm
- zone of inhibition at 500 µg/mL [32]: 16 mm
- MIC [33]: 30 µg/mL (≈ 79.7 µM)
- zone of inhibition at 500 µg/mL [34]: 11 mm
- zone of inhibition at 1000 µg/mL [35]: 23 mm
- zone of inhibition at 1000 µg/mL [36]: 19 mm
- zone of inhibition at 500 µg/mL [37]: 16 mm
- MIC [38]: 50 µg/mL (≈ 133 µM)
- zone of inhibition at 750 µg/mL [39]: 19 mm
- zone of inhibition at 1000 µg/mL [40]: 12 mm
- zone of inhibition at 250 µg/mL [41]: 9 mm
- zone of inhibition at 1000 µg/mL [42]: 21 mm
- zone of inhibition at 250 µg/mL [43]: 9 mm
- zone of inhibition at 750 µg/mL [44]: 16 mm
- zone of inhibition at 1250 µg/mL [45]: 23 mm
